Assays:
[1] = biological target: CYP3A4 (Homo sapiens, UniProt P08684); experiment: in vitro
[2] = biological target: Photinus pyralis (firefly) luciferase (Photinus pyralis, UniProt P08659); experiment: biochemical; assay type: biochemical
[3] = biological target: human CYP2D6 (Homo sapiens, UniProt P10635); experiment: biochemical; details: CYP2D6 IC50
[4] = biological target: human CYP2C19 (Homo sapiens, UniProt P33261)
[5] = biological target: human CYP2C9 (Homo sapiens, UniProt P11712)
[6] = biological target: T1, human CYP1A2 (Homo sapiens, UniProt P05177)
T1 sequence (P05177 1-516): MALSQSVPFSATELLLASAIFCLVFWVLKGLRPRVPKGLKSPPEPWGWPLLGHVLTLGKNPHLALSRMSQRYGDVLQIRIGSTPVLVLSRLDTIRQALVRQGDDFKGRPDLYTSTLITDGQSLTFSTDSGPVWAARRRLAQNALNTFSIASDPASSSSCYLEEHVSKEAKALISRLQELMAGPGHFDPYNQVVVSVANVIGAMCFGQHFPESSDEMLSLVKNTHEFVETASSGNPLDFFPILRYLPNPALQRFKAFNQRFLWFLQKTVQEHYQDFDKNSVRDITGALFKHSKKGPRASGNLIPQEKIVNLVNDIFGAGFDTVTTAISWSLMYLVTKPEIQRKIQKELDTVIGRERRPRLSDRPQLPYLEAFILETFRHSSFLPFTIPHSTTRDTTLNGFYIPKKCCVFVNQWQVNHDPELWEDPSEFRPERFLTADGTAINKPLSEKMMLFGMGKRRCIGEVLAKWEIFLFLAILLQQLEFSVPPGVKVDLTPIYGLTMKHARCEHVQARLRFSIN

Sequence of human CYP2C9 (P11712 whole entry): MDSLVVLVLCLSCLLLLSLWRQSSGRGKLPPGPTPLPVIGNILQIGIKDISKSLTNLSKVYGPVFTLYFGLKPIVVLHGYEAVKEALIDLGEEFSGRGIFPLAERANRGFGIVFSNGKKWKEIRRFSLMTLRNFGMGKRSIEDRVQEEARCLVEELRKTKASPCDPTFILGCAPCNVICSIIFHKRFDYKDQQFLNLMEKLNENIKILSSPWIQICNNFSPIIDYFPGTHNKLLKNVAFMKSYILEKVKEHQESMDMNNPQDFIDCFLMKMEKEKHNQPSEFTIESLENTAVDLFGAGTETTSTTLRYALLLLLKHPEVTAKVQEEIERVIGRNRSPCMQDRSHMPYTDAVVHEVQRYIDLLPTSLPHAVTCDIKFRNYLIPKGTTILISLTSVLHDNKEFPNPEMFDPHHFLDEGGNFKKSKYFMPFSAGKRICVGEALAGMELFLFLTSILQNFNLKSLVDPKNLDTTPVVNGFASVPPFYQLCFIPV
Sequence of human CYP2D6 (P10635 whole entry): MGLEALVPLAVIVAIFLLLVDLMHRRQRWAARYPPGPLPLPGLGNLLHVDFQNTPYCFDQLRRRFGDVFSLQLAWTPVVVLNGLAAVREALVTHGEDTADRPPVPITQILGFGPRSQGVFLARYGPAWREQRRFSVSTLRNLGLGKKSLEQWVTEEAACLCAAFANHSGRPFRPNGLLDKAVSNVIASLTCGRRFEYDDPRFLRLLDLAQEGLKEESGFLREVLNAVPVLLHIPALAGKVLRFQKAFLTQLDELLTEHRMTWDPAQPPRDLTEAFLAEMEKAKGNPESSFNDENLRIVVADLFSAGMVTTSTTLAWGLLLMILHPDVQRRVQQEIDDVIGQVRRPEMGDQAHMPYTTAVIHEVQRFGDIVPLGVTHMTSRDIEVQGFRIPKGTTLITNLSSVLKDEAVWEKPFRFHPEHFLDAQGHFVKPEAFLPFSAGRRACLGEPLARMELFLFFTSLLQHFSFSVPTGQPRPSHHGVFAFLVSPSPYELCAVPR
Sequence of human CYP2C19 (P33261 whole entry): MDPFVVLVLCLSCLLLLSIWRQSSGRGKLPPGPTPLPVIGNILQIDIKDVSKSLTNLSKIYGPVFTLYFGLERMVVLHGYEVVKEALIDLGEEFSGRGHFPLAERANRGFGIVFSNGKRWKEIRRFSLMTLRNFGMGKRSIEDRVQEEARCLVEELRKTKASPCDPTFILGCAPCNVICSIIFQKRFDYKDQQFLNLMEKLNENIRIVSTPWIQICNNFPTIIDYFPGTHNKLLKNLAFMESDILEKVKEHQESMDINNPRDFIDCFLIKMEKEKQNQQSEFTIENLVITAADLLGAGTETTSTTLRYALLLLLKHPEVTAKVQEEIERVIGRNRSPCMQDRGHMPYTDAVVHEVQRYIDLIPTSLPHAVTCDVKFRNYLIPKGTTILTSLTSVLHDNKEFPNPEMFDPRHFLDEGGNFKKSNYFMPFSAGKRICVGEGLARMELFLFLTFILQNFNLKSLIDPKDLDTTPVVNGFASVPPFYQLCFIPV
Sequence of CYP3A4 (P08684 whole entry): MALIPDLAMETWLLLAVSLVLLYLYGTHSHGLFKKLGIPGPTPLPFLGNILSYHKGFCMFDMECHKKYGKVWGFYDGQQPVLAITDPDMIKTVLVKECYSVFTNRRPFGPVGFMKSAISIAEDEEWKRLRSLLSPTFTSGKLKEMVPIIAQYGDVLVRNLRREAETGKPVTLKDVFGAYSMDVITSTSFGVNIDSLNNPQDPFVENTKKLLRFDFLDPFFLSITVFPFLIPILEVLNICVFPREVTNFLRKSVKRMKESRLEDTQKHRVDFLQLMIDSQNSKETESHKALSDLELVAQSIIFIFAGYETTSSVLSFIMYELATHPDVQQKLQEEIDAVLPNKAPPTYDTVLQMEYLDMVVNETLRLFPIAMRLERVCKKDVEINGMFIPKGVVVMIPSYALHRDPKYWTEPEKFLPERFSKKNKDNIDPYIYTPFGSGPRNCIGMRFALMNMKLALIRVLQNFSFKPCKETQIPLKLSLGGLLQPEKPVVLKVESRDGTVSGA
Sequence of Photinus pyralis (firefly) luciferase (P08659 whole entry): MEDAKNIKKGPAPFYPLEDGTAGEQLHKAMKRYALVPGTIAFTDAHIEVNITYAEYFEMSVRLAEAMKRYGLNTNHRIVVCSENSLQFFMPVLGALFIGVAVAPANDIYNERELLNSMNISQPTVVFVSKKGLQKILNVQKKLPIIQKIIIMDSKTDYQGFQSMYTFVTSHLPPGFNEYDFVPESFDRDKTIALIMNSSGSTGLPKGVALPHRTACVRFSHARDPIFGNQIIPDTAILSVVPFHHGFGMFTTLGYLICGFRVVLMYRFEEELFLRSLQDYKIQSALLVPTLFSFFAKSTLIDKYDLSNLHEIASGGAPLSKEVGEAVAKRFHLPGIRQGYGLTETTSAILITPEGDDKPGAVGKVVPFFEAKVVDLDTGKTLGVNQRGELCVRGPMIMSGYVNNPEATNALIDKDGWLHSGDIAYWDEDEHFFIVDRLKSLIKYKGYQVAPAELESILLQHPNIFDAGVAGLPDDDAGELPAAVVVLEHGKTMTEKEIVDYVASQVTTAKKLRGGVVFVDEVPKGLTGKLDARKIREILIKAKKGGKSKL

Structure (SMILES): C=CCN1C[C@H](C(=O)N(CCCN(C)C)C(=O)NCC)C[C@@H]2c3cccc4[nH]cc(c34)C[C@H]21 [Cabergoline]
- IC50 [1]: 1.02 µM
- Luciferase IC50 [2]: Inactive
- IC50 [3]: 1.47 µM
- CYP2C19 IC50 [4]: Inactive
- CYP2C9 IC50 [5]: Inactive
- CYP1A2 IC50 [6]: Inactive
